Results published in patent US20220304964A1, “PARA-AMINOHIPPURIC ACID (PAH) AS A RENAL PROTECTIVE SUBSTANCE” (ITM Isotope Technologies Munich SE, priority 2019, published 2022).
Like-named read-outs stand apart in the source and are kept apart here.

Legend:
[1] = test system: rats; settings: Natochin et al. 1989; cited from earlier work
[2] = test system: healthy Wistar rats; assay: Kidneys uptake of [^177Lu-DOTA^o-Tyr3]-octreotide by quantitative small animal SPECT with co-infusion of kidney protection agent; format: in vivo; settings: vs 0.9% NaCl co-infusion
Experimental: Imaging acquisition was performed after 0.5 h, 1 h, 4 h, 8 h, 24 h p.i.
(§1) For statistical analysis Microsoft Excel 2010 and Graphpad Prism 6.05 were employed. Data are presented as median and [25% and 75% percentile] and mean and standard deviation (SD) or standard error of mean (SEM). For comparison, ordinary one way ANOVA and Tukey's multiple comparisons test, two-sample two-tailed t-test were employed. Significance was accepted with P<0.05.

[3] = test system: male Wistar rats; assay: Ex-vivo organ distribution of [^177Lu-DOTA^o-Tyr3]-octreotide after pre-/co-injection of NaCl, Arg-Lys or PAH; format: in vivo; settings: 5 min and 60 min p.i., N=5, with respect to NaCl infusions
Experimental: All animals were pre-injected 10 min before the radiotracer injection with 1.0 mL of NaCl, Arg-Lys or PAH.
The animals were injected and sacrificed after 5 min or 60 min. Organs and tissue of interest were harvested and measured for activity. […] The average injected activity was 4.49±0.38 MBq/kg body weight (5 min) and 159±13 MBq/kg body weight (5 min) for the SPECT and 4.19±0.57 MBq/kg body weight (60 min) or 139±8 MBq/kg body weight for the SPECT animals (60 min).
as §1
The results are graphically illustrated in FIG. 5.

[4] = test system: healthy Wistar rats; assay: SPECT/CT kidney and blood (heart) radioactivity of ^177Lu-labeled DOTA compounds with co-injection of PAH or saline; format: in vivo; settings: ^177Lu-DOTA-Affilin
Experimental: (§2) The tracer distribution of the radiolabeled test compounds were performed in two distinct cohorts of healthy Wistar rats with focus on the kidney uptake/clearance and blood levels. […] Each cohort comprises at least 3 rats for statistic matters.
Testing parameters were provided for each compound, RCP >95%.
The percentage of injected radioactivity present in the kidneys over time was determined according to the above protocol. The results are graphically illustrated in FIG. 6.
The percentage of injected radioactivity present in blood over time was determined according to the above protocol. The results are graphically illustrated in FIG. 7.

[5] = test system: healthy Wistar rats; assay: PET/CT kidney and blood radioactivity of ^68Ga-labeled HBED-CC-PSMA-11 with co-injection of PAH or saline; format: in vivo; settings: PAH 200 mg/mL vs 0.9% NaCl; 0.1, 0.5, 1, 2, 4 h; FIG. 8
Experimental: as §2
Mice were injected with diagnostic ^68Ga-labeled PSMA-11 conjugated with acyclic chelator HBED-CC, and co-injected with PAH (200 mg/mL) or saline (0.9% NaCl) as a control. The percentage of injected radioactivity present in kidney (upper lane) and blood (lower lane) over time was determined according to the above protocol. The results are graphically illustrated in FIG. 8.

[6] = test system: AR42J tumor mouse model; assay: Comparative biodistribution of ^177Lu-DOTATOC i.v. after i.p. PAH or saline; format: in vivo, CD1 nude mice; settings: FIG. 9
Experimental: Mice (3 animals per group) were sacrificed at 0.5 h, 1 h, 2 h, and 4 h, respectively. The organs were quickly rinsed in 0.9% NaCl and dried before being weighed and counted to eliminate possible contaminating blood. […] Data from organ/tissue counting are expressed as percentage of injected dose (% ID/g)).

[7] = test system: mice; assay: Comparative biodistribution of ^99mTc-Etarfolatide given with PAH or saline; format: in vivo; settings: PAH IP 10 min prior + tracer diluted in PAH vs saline; after 30 min; FIG. 10
Experimental: 30 mice (male and female) were randomly assigned to two groups.
Group A: The mice were injected with ^99mTc Etarfolatide diluted in PAH (2.04 μg Etarfolatide/mouse) after having received an IP injection of PAH 10 min prior to radiotracer injection. Five time-points were assessed: 5 min, 30 min, 1 h, 2 h, 4 h (3 mice per time-point).
Group B: The mice were injected with ^99mTc Etarfolatide diluted in saline (2.04 μg Etarfolatide/mouse) after having received an IP injection of saline 10 min prior to radiotracer injection. Five time-points were assessed: 5 min, 30 min, 1 h, 2 h, 4 h (3 mice per time-point).

[8] = test system: Laboratory Rat (Rattus norwegicus), Lewis; assay: SPECT biodistribution of ^177Lu-PSMA I&T with kidney protection agents (PAH, Probenecid, saline); format: in vivo; settings: for radioactivity in kidney cells (^177Lu-PSMA I&T): compared to the saline control (PAH also compared to probenecid), FIGS. 11 to 14
Text: The protocol was executed in a way to test the radioactivity concentration of the kidneys in groups of animals injected with one TA but three different KP agents in three separate groups. Thus, the following matrix of experimental groups was formed.

[9] = low plasma concentrations (1.0 to 2.0 mg/100 mL); average; cited from earlier work
[10] = test system: female mice; settings: cited from earlier work
[11] = Radiolabel stability of ^99mTc-Etarfolatide (HPLC, ITLC-SG); format: physicochemical; settings: 24 h post-preparation
Experimental: Radiolabeling efficiency and stability was determined using: (i) Instant thin layer chromatography-silica gel (ITLC-SG) with water (Rf of ^99mTc-Etarfolatide and free pertechnetate=0.9-1.0; Rf of colloid=0.0-0.1) and acetone (Rf of free pertechnetate=0.9-1.0; Rf of colloid and ^99mTc-Etarfolatide=0.0-0.1) as the mobile phases and (ii) RP-HPLC: Solvent A: 0.1% TFA in H2O. Solvent B: 0.1% TFA in AcCN; Gradient Elution, flow rate 1 mL/min.
On each day of experimentation, a new radiolabeling procedure was performed with approximately the same ^99mTc activity.
The volume of the radiolabeled folate was measured to be 1300 μL, while the activity was 734 MBq (Day of experimentation: March 4th). A sample corresponding to 300 MBq (i.e. 15 MBq×20 mice) was prepared. 531 μL were taken from the radiolabeled folate, which was diluted with either 1469 μL Saline or 1469 μL PAH (2000 μL 99mTc-etarfolatide, 100 μL/15 MBq per mouse). Before injection, the sample was filtered through a […] sterile filter. The injected 15 MBq/mouse corresponds to 2.04 μg Etarfolatide/mouse (injected quantity of Etarfolatide was kept stable throughout the experiment).

[12] = test system: patients; settings: cited from earlier work
[13] = group B (PAH) compared to group A (NaCl)
[14] = at all time points (0.5-4 h), vs saline

Structure (SMILES): C[N+](C)(C)CCO.[Cl-] [Choline chloride]
- effect on cisplatin's nephrotoxic effects [1]: reduce cisplatin's nephrotoxic effects

Structure (SMILES): Nc1ccc(C(=O)NCC(=O)O)cc1 [PAH, para-aminohippuric acid]
- kidney uptake reduction of [^177Lu-DOTA^o-Tyr3]-octreotide ([2]; 0.5 h post injection): 50%
- kidney uptake reduction of [^177Lu-DOTA^o-Tyr3]-octreotide ([2]; after 8 h): 56%
- kidney uptake reduction of [^177Lu-DOTA^o-Tyr3]-octreotide ([2]; after 24 h): 50%
- ex-vivo uptake of [^177Lu-DOTA^o-Tyr3]-octreotide in the kidneys [3]: significantly reduced the uptake in the kidneys
- kidney uptake of Affilin ([4]; PAH 200 mg/mL vs 0.9% NaCl, versus the other compounds tested): less prominently reduced
- blood activity of Affilin (percentage of injected radioactivity in blood) ([4]; co-injected PAH 200 mg/mL vs 0.9% NaCl, FIG. 7): significant increase of blood activity
- kidney uptake of radiolabeled compounds (percentage of injected radioactivity in kidneys) ([4]; ^177Lu-DOTA-RGD, ^177Lu-DOTA-Sargastrin, ^177Lu-DOTA-JR11, PAH 200 mg/mL vs 0.9% NaCl, 0.5, 1, 4, 24 h, FIG. 6): significant effect in reduction of kidney uptake
- kidney uptake of ^68Ga-labeled HBED-CC conjugated PSMA-11 [5]: significant reduction of kidney uptake
- ^177Lu-DOTATOC uptake in kidneys ([6]; group B (PAH 20% i.p. 50 μL + ^177Lu-DOTATOC/PAH) vs group A (NaCl 0.9%), 0.5-4 h): significant decrease
- ^177Lu-DOTATOC level in blood [6, 13]: significantly increased
- ^177Lu-DOTATOC level in tumor [6, 13]: significantly increased
- renal uptake of ^99mTc-Etarfolatide [7]: decreased renal uptake
- renal cortex radioactivity (^177Lu-PSMA I&T) [8, 14]: reduced radioactivity
- renal medulla radioactivity (^177Lu-PSMA I&T) [8, 14]: reduced radioactivity
- radioactivity in kidney cells (^177Lu-PSMA I&T) [8]: marked reduction of radioactivity
- PAH cleared by the kidneys from the renal blood stream by a single circulation [9]: 90%
- intravenous LD 50 [10]: 7220 mg/kg
- effect on cisplatin's nephrotoxic effects [1]: reduce cisplatin's nephrotoxic effects

Structure (SMILES): CCCN(CCC)S(=O)(=O)c1ccc(C(=O)O)cc1 [Probenecid]
- radioactivity in kidney cells (^177Lu-PSMA I&T) [8]: no effect

Structure (SMILES): Nc1nc2ncc(CNc3ccc(C(=O)N[C@H](CCC(=O)NC[C@@H]4[NH][99Tc]56(=[O])[S]C[C@@H](C(=O)O)[N]5C(=O)[C@H](CC(=O)O)[N]6C4=O)C(=O)O)cc3)nc2c(=O)[nH]1 [^99mTc-Etarfolatide]
- Stability of radiolabel by HPLC [11]: no loss of radiolabel

Structure (SMILES): C=C(CC)C(=O)c1ccc(OCC(=O)O)c(Cl)c1Cl [ethacrynic acid]
- effect on cisplatin's nephrotoxic effects [1]: reduce cisplatin's nephrotoxic effects

Structure (SMILES): NS(=O)(=O)c1cc(C(=O)O)c(NCc2ccco2)cc1Cl [fursosemide]
- effect on cisplatin's nephrotoxic effects [1]: reduce cisplatin's nephrotoxic effects

Structure (SMILES): NCCCC[C@H](N)C(=O)O [lysine]
- Kidney uptake reduction of radiolabeled octreotide ([12]; 25 g of lysine, P<0.04): 17%+/−9%
- Kidney uptake reduction of radiolabeled octreotide ([12]; 50 g of lysine, P<0.04): 15%+/−13%
- serum potassium levels ([12]; 75 g of lysine (Lys75) or 25 g lysine plus 25 g arginine (LysArg)): rose significantly
- Kidney uptake reduction of radiolabeled octreotide ([12]; 75 g of lysine, P<0.001): 44%+/−11%
